Results from US8309144B2, “Use of a cruciferous protein hydrolysate as a depigmentation agent or for a cosmetic and/or pharmaceutical composition” (ISP Investments Inc., priority 2004, dated 2012).

Test system: melanin in the epidermis of ex vivo skin
Assay: Whitening effect on ex vivo skin, Fontana-Masson staining with image analysis of luminosity histograms (Example 5)
Type: cell-based, human
Method: Comparative studies were conducted using 1% of a non fermented rapeseed peptide hydrolysate for 72 hours, or 1% arbutin, known for its whitening effect, or a combination of both on ex vivo skin.
Skin biopsies are prepared as described in example 2. Four different conditions are tested: • Condition 1: control, no active ingredient is applied • Condition 2: Arbutin 1% is applied twice a day over a period of 72 hours • Condition 3: non fermented rapeseed extract is applied twice a day over a period of 72 hours • Condition 4: a combination of 1% of a non fermented rapeseed extract and 0.5% arbutin is applied twice a day over a period of 72 hours
A quantitative evaluation of the presence of melanin in the epidermis of the skin samples is carried out histologically, under an optical microscope, using the Fontana-Masson staining method as described in example 2.
To confirm visual observations and quantify the results, image analysis was performed using several image processing steps and analysis of luminosity histograms.
All date were normalized to the length of the basal layer within a given histological section.

**Q.** `OC[C@H]1O[C@@H](Oc2ccc(O)cc2)[C@H](O)[C@@H](O)[C@@H]1O` [arbutin] was tested. Which “decrease in melanin content (normalized integrated values of histograms)” value (ex vivo skin, 1%, 72 hours) did it give?
**A.** 32%

**Q.** And the “melanin content, visual observation (in words)” value (ex vivo skin, 1%, 72 hours)?
**A.** significant decrease in melanin content

**Q.** And the “% of decrease (melanin content vs control)” value (ex vivo skin, applied twice a day over 72 hours, 1% (combination 1%/0.5%))?
**A.** −31.8%

**Q.** And the “Area under curve (luminosity histogram)” value (ex vivo skin, applied twice a day over 72 hours, 1% (combination 1%/0.5%), control 54517)?
**A.** 46247

**Q.** What about the Area/length (normalized to length of basal layer, applied twice a day over 72 hours, control 66.78) of the same compound?
**A.** 45.53 l/micron
